According to patent US20230033285A1, “Protease Inhibitors for Treatment of Coronavirus Infections” (The Scripps Research Institute, priority 2021, published 2023):

test system: SARS-CoV-2; test: microbe, parasite or virus in culture; format: cell-based; conditions: Severe acute respiratory syndrome coronavirus 2, HeLa-ACE2, 24 h, read-out: EC50, μM (Hela)

| SMILES | EC50 |
| --- | --- |
| CC(C)C[C@H](NC(=O)C(=O)NC1CCCCC1)C(=O)N[C@@H](C[C@@H]1CCNC1=O)C(=O)CO [Compound 14, N^1-cyclohexyl-N^2-((S)-1-(((S)-4-hydroxy-3-oxo-1-((S)-2-oxopyrrolidin-3-yl)butan-2-yl)amino)-4-methyl-1-oxopentan-2-yl)oxalamide] | > 1 µM |

same assay, conditions: Severe acute respiratory syndrome coronavirus 2; HeLa-ACE2 cells infected with SARS-CoV-2, 24 h, immunofluorescence of infected cells; read-out: EC50, μM (Hela)

| SMILES | EC50 |
| --- | --- |
| COc1cccc2[nH]c(C(=O)N[C@@H](CC(C)C)C(=O)N[C@@H](C[C@@H]3CCNC3=O)C(=O)CO)cc12 [Compound 1, N-((S)-1-(((S)-4-hydroxy-3-oxo-1-((S)-2-oxopyrrolidin-3-yl)butan-2-yl)amino)-4-methyl-1-oxopentan-2-yl)-4-methoxy-1H-indole-2-carboxamide] | 0.2 to 0.5 µM |
| CC(C)C[C@H](NC(=O)C(=O)Nc1ccccc1)C(=O)N[C@@H](C[C@@H]1CCNC1=O)C(=O)CO [Compound 2, N^1-((S)-1-(((S)-4-hydroxy-3-oxo-1-((S)-2-oxopyrrolidin-3-yl)butan-2-yl)amino)-4-methyl-1-oxopentan-2-yl)-N^2-phenyloxalamide] | > 1 µM |
| CCCCCCCCCCCCCCC(=O)OCC(=O)[C@H](C[C@@H]1CCNC1=O)NC(=O)[C@H](CC(C)C)NC(=O)C(=O)Nc1ccccc1F [Compound 4, (S)-3-((S)-2-(2-((2-fluorophenyl)amino)-2-oxoacetamido)-4-methylpentanamido)-2-oxo-4-((S)-2-oxopyrrolidin-3-yl)butyl pentadecanoate] | 0.2 to 0.5 µM |
| CC(C)C[C@H](NC(=O)C(=O)Nc1ccccc1F)C(=O)N[C@@H](C[C@@H]1CCNC1=O)C(=O)COC(=O)C1CCC(N2CCCCC2)CC1 (stereo partly drawn) [Compound 5, (S)-3-((S)-2-(2-((2-fluorophenyl)amino)-2-oxoacetamido)-4-methylpentanamido)-2-oxo-4-((S)-2-oxopyrrolidin-3-yl)butyl 4-(piperidin-1-yl)cyclohexane-1-carboxylate] | 0.2 to 0.5 µM |
| CC(C)C[C@H](NC(=O)C(=O)Nc1ccccc1F)C(=O)N[C@@H](C[C@@H]1CCNC1=O)C(=O)COC(=O)C1CCN(C2CCCCC2)CC1 [Compound 6, (S)-3-((S)-2-(2-((2-fluorophenyl)amino)-2-oxoacetamido)-4-methylpentanamido)-2-oxo-4-((S)-2-oxopyrrolidin-3-yl)butyl 1-cyclohexylpiperidine-4-carboxylate] | 0.05 to 0.2 µM |
| COc1ccccc1NC(=O)C(=O)N[C@@H](CC(C)C)C(=O)N[C@@H](C[C@@H]1CCNC1=O)C(=O)CO [Compound 7] | > 1 µM |
| Cc1ccccc1NC(=O)C(=O)N[C@@H](CC1CCCCC1)C(=O)N[C@@H](C[C@@H]1CCNC1=O)C(=O)CO [Compound 8, N^1-((S)-3-cyclohexyl-1-(((S)-4-hydroxy-3-oxo-1-((S)-2-oxopyrrolidin-3-yl)butan-2-yl)amino)-1-oxopropan-2-yl)-N^2-(o-tolyl)oxalamide] | 0.2 to 0.5 µM |
| COc1cccc(NC(=O)C(=O)N[C@@H](CC(C)C)C(=O)N[C@@H](C[C@@H]2CCNC2=O)C(=O)CO)c1 [Compound 9] | 0.05 to 0.2 µM |
| CC(C)C[C@H](NC(=O)Nc1ccccc1F)C(=O)N[C@@H](C[C@@H]1CCNC1=O)C(=O)CO [Compound 10, (S)-2-(3-(2-fluorophenyl)ureido)-N-((S)-4-hydroxy-3-oxo-1-((S)-2-oxopyrrolidin-3-yl)butan-2-yl)-4-methylpentanamide] | > 1 µM |
| Cc1cccc(C)c1NC(=O)C(=O)N[C@@H](CC(C)C)C(=O)N[C@@H](C[C@@H]1CCNC1=O)C(=O)COC(=O)C(=O)c1ccccc1 [Compound 11, (S)-3-((S)-2-(2-((2,6-dimethylphenyl)amino)-2-oxoacetamido)-4-methylpentanamido)-2-oxo-4-((S)-2-oxopyrrolidin-3-yl)butyl 2-oxo-2-phenylacetate] | 0.05 to 0.2 µM |
| Cc1cccc(C)c1NC(=O)C(=O)N[C@@H](CC(C)C)C(=O)N[C@@H](C[C@@H]1CCNC1=O)C(=O)CO [Compound 12, N^1-(2,6-dimethylphenyl)-N^2-((S)-1-(((S)-4-hydroxy-3-oxo-1-((S)-2-oxopyrrolidin-3-yl)butan-2-yl)amino)-4-methyl-1-oxopentan-2-yl)oxalamide] | > 1 µM |
| Cc1cccc(C)c1NC(=O)C(=O)N[C@@H](CC(C)C)C(=O)NC(C[C@@H]1CCNC1=O)C(=O)CO (stereo partly drawn) [Compound 13, N^1-(2,6-dimethylphenyl)-N^2-((2S)-1-((4-hydroxy-3-oxo-1-((S)-2-oxopyrrolidin-3-yl)butan-2-yl)amino)-4-methyl-1-oxopentan-2-yl)oxalamide] | 0.2 to 0.5 µM |
| COc1cccc(OC)c1NC(=O)C(=O)N[C@@H](CC(C)C)C(=O)N[C@@H](C[C@@H]1CCNC1=O)C(=O)CO [Compound 15, N^1-(2,6-dimethoxyphenyl)-N^2-((S)-1-(((S)-4-hydroxy-3-oxo-1-((S)-2-oxopyrrolidin-3-yl)butan-2-yl)amino)-4-methyl-1-oxopentan-2-yl)oxalamide] | > 1 µM |
| COc1cccc(C)c1NC(=O)C(=O)N[C@@H](CC(C)C)C(=O)N[C@@H](C[C@@H]1CCNC1=O)C(=O)CO [Compound 16, N^1-((S)-1-(((S)-4-hydroxy-3-oxo-1-((S)-2-oxopyrrolidin-3-yl)butan-2-yl)amino)-4-methyl-1-oxopentan-2-yl)-N^2-(2-methoxy-6-methylphenyl)oxalamide] | 0.2 to 0.5 µM |
| CCc1cccc(CC)c1NC(=O)C(=O)N[C@@H](CC(C)C)C(=O)N[C@@H](C[C@@H]1CCNC1=O)C(=O)CO [Compound 17, N^1-(2,6-diethylphenyl)-N^2-((S)-1-(((S)-4-hydroxy-3-oxo-1-((S)-2-oxopyrrolidin-3-yl)butan-2-yl)amino)-4-methyl-1-oxopentan-2-yl)oxalamide] | < 0.05 µM |
| CCCCCCC(=O)OCC(=O)[C@H](C[C@@H]1CCNC1=O)NC(=O)[C@H](CC(C)C)NC(=O)C(=O)NC1CCCCC1 [Compound 18, (S)-3-((S)-2-(2-(cyclohexylamino)-2-oxoacetamido)-4-methylpentanamido)-2-oxo-4-((S)-2-oxopyrrolidin-3-yl)butyl heptanoate] | 0.05 to 0.2 µM |
| CCCCCCC(=O)OCC(=O)[C@H](C[C@@H]1CCNC1=O)NC(=O)[C@H](CC1CCCCC1)NC(=O)C(=O)NC1CCCCC1 [Compound 19, (S)-3-((S)-3-cyclohexyl-2-(2-(cyclohexylamino)-2-oxoacetamido)propanamido)-2-oxo-4-((S)-2-oxopyrrolidin-3-yl)butyl heptanoate] | 0.2 to 0.5 µM |
| Cc1ccccc1NC(=O)C(=O)N[C@@H](Cc1ccccc1F)C(=O)N[C@@H](C[C@@H]1CCNC1=O)C(=O)CO [Compound 20, N^1-((S)-3-(2-fluorophenyl)-1-(((S)-4-hydroxy-3-oxo-1-((S)-2-oxopyrrolidin-3-yl)butan-2-yl)amino)-1-oxopropan-2-yl)-N^2-(o-tolyl)oxalamide] | > 1 µM |
| CC(C)C[C@H](NC(=O)C(=O)Nc1ccccc1F)C(=O)N[C@@H](C[C@@H]1CCCNC1=O)C(=O)CO [Compound 21, N^1-(2-fluorophenyl)-N^2-((S)-1-(((S)-4-hydroxy-3-oxo-1-((S)-2-oxopiperidin-3-yl)butan-2-yl)amino)-4-methyl-1-oxopentan-2-yl)oxalamide] | 0.05 to 0.2 µM |
| CC(C)(C)C[C@H](NC(=O)C(=O)NC12CC(F)(C1)C2)C(=O)N[C@@H](C[C@@H]1CCNC1=O)C(=O)CO [Compound 22, N^1-(3-fluorobicyclo[1.1.1]pentan-1-yl)-N^2-((S)-1-(((S)-4-hydroxy-3-oxo-1-((S)-2-oxopyrrolidin-3-yl)butan-2-yl)amino)-4,4-dimethyl-1-oxopentan-2-yl)oxalamide] | 0.2 to 0.5 µM |
| Cc1ccc(C2(NC(=O)C(=O)N[C@@H](CC(C)C)C(=O)N[C@@H](C[C@@H]3CCNC3=O)C(=O)CO)CC2)cc1 [Compound 23] | 0.5 to 1 µM |
| O=C(Nc1ccccc1F)C(=O)N[C@@H](CC1CCCCC1)C(=O)N[C@@H](C[C@@H]1CCCNC1=O)C(=O)CO [Compound 24, N^1-((S)-3-cyclohexyl-1-(((S)-4-hydroxy-3-oxo-1-((S)-2-oxopiperidin-3-yl)butan-2-yl)amino)-1-oxopropan-2-yl)-N^2-(2-fluorophenyl)oxalamide] | 0.05 to 0.2 µM |
| O=C(Nc1ccccc1F)C(=O)N[C@@H](CC1CCCCC1)C(=O)N[C@H](C[C@@H]1CCCNC1=O)C(=O)CO [Compound 25, N^1-((S)-3-cyclohexyl-1-(((R)-4-hydroxy-3-oxo-1-((S)-2-oxopiperidin-3-yl)butan-2-yl)amino)-1-oxopropan-2-yl)-N^2-(2-fluorophenyl)oxalamide] | 0.05 to 0.2 µM |
| CC(C)C[C@H](NC(=O)C(=O)NCC(F)(F)F)C(=O)N[C@@H](C[C@@H]1CCNC1=O)C(=O)CO [Compound 26] | > 1 µM |
| Cc1ccccc1NC(=O)C(=O)N[C@@H](CC(C)C)C(=O)N[C@@H](C[C@@H]1CCCNC1=O)C(=O)CO [Compound 27, N^1-((S)-1-(((S)-4-hydroxy-3-oxo-1-((S)-2-oxopiperidin-3-yl)butan-2-yl)amino)-4-methyl-1-oxopentan-2-yl)-N^2-(o-tolyl)oxalamide] | 0.05 to 0.2 µM |
| CCc1cccc(CC)c1NC(=O)C(=O)N[C@@H](CC(C)C)C(=O)N[C@@H](C[C@@H]1CCCNC1=O)C(=O)CO [Compound 28, N^1-(2,6-diethylphenyl)-N^2-((S)-1-(((S)-4-hydroxy-3-oxo-1-((S)-2-oxopiperidin-3-yl)butan-2-yl)amino)-4-methyl-1-oxopentan-2-yl)oxalamide] | < 0.05 µM |
| CC(C)C[C@H](NC(=O)C(=O)NC1(C)CC1)C(=O)N[C@@H](C[C@@H]1CCCNC1=O)C(=O)CO [Compound 29, N^1-((S)-1-(((S)-4-hydroxy-3-oxo-1-((S)-2-oxopiperidin-3-yl)butan-2-yl)amino)-4-methyl-1-oxopentan-2-yl)-N^2-(1-methylcyclopropyl)oxalamide] | > 1 µM |
| O=C(Nc1ccccc1F)C(=O)N1C[C@@H]2CCC[C@@H]2[C@H]1C(=O)N[C@@H](C[C@@H]1CCNC1=O)C(=O)CO [Compound 30, (1S,3aR,6aS)-2-(2-((2-fluorophenyl)amino)-2-oxoacetyl)-N-((S)-4-hydroxy-3-oxo-1-((S)-2-oxopyrrolidin-3-yl)butan-2-yl)octahydrocyclopenta[c]pyrrole-1-carboxamide] | 0.05 to 0.2 µM |
